Test: Inhibition of Escherichia coli PDHc-E1 expressed in Escherichia coli TB1 using sodium pyruvate as substrate after 3 mins by 2,6-DCIP reduction assay

`Cc1ncc(Cn2cc(COc3ccc([N+](=O)[O-])cc3Cl)nn2)c(N)n1` and `Cc1ncc(Cn2cc(COc3ccc([N+](=O)[O-])cc3)nn2)c(N)n1` are within 1.5-fold of each other in IC50: 6.88 µM for the first, 8.8 µM for the second.

First: Cc1ncc(Cn2cc(COc3ccc(C(=O)O)cc3)nn2)c(N)n1
Second: Cc1ncc(Cn2cc(COc3ccccc3)nn2)c(N)n1
The IC50 of the first is 3.6-fold lower: 15.1 µM for the first, 55.1 µM for the second. The first is the more potent here.
